Measured values as given in patent US20180037568A1, “MODULATORS OF METHYL MODIFYING ENZYMES, COMPOSITIONS AND USES THEREOF” (Constellation Pharmaceuticals, Inc., priority 2015, published 2018).
Like-named read-outs stand apart in the source and are kept apart here.

Assays:
EZH2 = EZH2 (Homo sapiens, UniProt Q15910); assay: EZH2 nuc BSA Brij 1.5 (IC50): rPRC2, biotinylated oligonucleosome substrate, 3H SAM FlashPlate; assay type: biochemical
Procedure: EZH2 Nuc BSA Brij 1.5 (IC50):
Assays were carried out by mixing rPRC2 together with biotinylated oligonucleosome substrates in the presence of the radio-labeled enzyme co-factor, S-adenosyl-L-methionine (^3H SAM) (Perkin Elmer) and monitoring the enzymatically mediated transfer of tritiated methyl groups from ^3H SAM to histone lysine residues. The amount of resulting tritiated methyl histone product was measured by first capturing the biotinylated oligonucleosomes in streptavidin (SAV) coated FlashPlates (Perkin Elmer), followed by a wash step to remove un-reacted ^3H SAM, and then counting on a TopCount NXT 384 well plate scintillation counter (Perkin Elmer). The final assay conditions for EZH2 were as follows: 50 mM Tris Buffer pH 8.5, 1 mM DTT, 69 μM Brij-35 detergent, 5.0 mM MgCl2, 0.1 mg/mL BSA, 0.2 μM ^3H SAM, 0.2 μM biotinylated oligonucleosomes, 3.6 μM H3K27me3 peptide and 2 nM EZH2.
Compound IC50 Measurements were Obtained as Follows:
Compounds were first dissolved in 100% DMSO as 10 mM stock solutions. Ten point dose response curves were generated by dispensing varying amounts of the 10 mM compound solution in 10 wells of the 384 well plate (Echo; Labcyte), pure DMSO was then used to backfill the wells to insure all wells have the same amount of DMSO. A 12.5 μL volume of the HMT enzyme, H3K27me3 peptide and oligonucleosome substrate in assay buffer was added to each well of the assay plate using a Multidrop Combi (ThermoFisher). Compounds were pre-incubated with the enzyme for 20 min, followed by initiation of the methyltransferase reaction by addition of 12.5 μL of ^3H SAM in assay buffer (final volume=25 μL). The final concentrations of compounds ranged from a top default concentration of 80 μM down to 0.16 μM in ten 2-fold dilution steps. Reactions were carried out for 60 minutes and quenched with 20 μL per well of 1.96 mM SAH, 50 mM Tris pH 8.5, 200 mM EDTA. Stopped reactions were transferred to SAV coated Flashplates (Perkin Elmer), incubated for 120 min, washed with a plate washer, and then read on the TopCount NXT (1.0 min/well) to measure the amount of methyl histone product formed during the reaction. The amount of methyl histone product was compared with the amount of product formed in the 0% and 100% inhibition control wells allowing the calculation of % Inhibition in the presence of the individual compounds at various concentrations. IC50's were computed using a 4 parameter fit non-linear curve fitting software package (XLFIT, part of the database package, ActivityBase (IDBS)) where the four parameters were IC50, Hill slope, pre-transitional baseline (0% INH), and post-transitional baseline (100% INH); with the latter two parameters being fixed to zero and 100%, respectively, by default.

PRC2 containing wt EZH2 = molecular target: T1, PRC2 containing wt EZH2 (Homo sapiens, UniProt Q15910); assay: EZH2 pep BSA Brij 4.0 LowE (IC50): 3H-SAM incorporation into biotinylated H3 peptide; assay type: biochemical; details: 20 pM PRC2 wt EZH2, 0.9 μM 3H-SAM, biotinylated H3 peptide substrate, 2 μM H3K27me3 activating peptide
T1 construct: made in house
T1 sequence (Q15910 whole entry): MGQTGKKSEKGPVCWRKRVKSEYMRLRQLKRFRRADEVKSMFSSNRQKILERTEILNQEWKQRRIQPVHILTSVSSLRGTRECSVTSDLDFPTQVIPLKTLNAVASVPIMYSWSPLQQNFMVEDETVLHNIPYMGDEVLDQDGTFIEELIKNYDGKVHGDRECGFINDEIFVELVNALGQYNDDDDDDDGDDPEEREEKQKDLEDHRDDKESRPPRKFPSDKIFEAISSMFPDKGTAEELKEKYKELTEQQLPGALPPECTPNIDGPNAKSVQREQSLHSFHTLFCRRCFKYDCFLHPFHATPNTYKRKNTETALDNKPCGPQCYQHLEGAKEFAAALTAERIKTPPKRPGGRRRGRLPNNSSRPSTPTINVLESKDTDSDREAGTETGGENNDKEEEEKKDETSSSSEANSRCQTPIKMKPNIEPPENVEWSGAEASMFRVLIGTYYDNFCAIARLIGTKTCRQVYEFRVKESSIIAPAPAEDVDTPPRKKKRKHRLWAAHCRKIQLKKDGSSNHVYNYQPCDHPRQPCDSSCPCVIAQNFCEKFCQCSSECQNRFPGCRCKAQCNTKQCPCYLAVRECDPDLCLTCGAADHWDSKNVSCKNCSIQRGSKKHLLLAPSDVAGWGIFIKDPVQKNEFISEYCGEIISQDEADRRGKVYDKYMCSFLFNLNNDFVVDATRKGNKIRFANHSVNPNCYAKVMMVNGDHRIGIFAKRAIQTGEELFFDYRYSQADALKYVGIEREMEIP
T1 sequence (O75530 whole entry partner): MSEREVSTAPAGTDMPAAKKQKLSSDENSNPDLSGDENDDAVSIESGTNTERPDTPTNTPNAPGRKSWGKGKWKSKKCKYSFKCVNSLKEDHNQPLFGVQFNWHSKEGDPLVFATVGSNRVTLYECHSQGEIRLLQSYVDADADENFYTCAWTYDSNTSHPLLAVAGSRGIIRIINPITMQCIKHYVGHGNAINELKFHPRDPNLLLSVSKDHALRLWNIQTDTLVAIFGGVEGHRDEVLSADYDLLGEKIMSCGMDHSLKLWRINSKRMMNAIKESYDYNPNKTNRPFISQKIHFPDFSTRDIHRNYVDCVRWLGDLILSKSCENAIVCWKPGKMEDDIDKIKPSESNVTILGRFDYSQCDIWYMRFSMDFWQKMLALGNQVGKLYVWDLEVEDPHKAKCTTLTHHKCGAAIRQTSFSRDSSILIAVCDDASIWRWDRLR
T1 sequence (Q15022 whole entry partner): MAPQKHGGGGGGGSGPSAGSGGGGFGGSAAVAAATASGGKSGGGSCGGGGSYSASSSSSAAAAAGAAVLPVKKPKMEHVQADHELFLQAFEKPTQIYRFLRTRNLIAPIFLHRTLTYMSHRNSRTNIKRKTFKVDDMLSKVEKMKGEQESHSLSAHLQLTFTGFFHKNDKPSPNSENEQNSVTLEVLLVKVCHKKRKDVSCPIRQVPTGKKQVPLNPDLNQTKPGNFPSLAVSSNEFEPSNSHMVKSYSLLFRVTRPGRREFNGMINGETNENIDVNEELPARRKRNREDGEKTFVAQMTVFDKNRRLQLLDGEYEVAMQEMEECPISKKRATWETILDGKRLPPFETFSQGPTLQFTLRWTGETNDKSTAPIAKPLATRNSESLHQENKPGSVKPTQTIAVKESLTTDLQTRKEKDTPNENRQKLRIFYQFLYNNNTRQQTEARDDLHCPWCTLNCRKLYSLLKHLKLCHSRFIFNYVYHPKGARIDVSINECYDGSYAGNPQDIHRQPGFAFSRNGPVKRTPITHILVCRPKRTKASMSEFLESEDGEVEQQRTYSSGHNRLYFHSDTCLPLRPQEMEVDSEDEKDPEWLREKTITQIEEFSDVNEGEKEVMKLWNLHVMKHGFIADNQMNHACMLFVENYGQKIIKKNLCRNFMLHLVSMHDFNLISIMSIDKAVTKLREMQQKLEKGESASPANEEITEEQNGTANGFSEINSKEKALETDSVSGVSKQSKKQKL
T1 sequence (Q09028 whole entry partner): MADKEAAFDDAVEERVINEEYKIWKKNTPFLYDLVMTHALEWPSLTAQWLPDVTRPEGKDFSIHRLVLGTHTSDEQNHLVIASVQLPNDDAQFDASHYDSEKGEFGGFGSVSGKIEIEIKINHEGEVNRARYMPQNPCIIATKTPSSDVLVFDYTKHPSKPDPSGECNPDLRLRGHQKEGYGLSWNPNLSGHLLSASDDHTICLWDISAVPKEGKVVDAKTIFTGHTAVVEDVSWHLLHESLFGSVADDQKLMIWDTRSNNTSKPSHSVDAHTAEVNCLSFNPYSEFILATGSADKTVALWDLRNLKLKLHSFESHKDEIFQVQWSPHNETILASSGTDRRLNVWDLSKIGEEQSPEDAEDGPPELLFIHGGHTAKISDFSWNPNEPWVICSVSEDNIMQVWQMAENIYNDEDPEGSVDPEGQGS
T1 sequence (Q6ZN18 whole entry partner): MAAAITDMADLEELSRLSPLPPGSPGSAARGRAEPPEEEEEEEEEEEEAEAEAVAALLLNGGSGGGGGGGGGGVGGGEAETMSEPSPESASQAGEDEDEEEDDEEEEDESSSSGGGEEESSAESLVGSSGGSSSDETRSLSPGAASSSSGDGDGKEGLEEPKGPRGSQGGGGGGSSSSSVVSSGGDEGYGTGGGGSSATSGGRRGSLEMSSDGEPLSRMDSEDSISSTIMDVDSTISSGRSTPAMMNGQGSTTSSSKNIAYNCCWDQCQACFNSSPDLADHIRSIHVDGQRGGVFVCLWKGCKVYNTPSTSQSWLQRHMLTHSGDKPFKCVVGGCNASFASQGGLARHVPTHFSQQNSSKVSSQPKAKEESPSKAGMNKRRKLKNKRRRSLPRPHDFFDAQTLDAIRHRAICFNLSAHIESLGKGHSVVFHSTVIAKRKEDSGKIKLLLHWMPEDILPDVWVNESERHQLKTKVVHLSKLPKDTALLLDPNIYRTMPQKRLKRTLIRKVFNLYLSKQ
Procedure, shortened: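 PRC2 (wt EZH2, 20 pM) pre-incubated 120 min with compound, 0.9 μM 3H-SAM and 2 μM H3K27me3 activating peptide in pH 8.5 Tris/DTT/Brij-35/0.1% BSA, 0.8% DMSO. Biotinylated H3K27me1 peptide added (2 μM stock), 5 h at room temperature, EDTA/SAH quench, streptavidin Flashplate capture. IC50 from four-parameter fit versus full-activity and no-enzyme controls.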

H3K27me3 mark = assay: H3K27me3 Alpha Hela Assay (AlphaLISA); assay type: cell-based; details: Hela cells, read-out: EZH2 Cell H3K27me3 Alpha HeLa (EC50 K27me3)
Procedure, shortened: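 HeLa cells at 1,000/well were treated with ten 3-fold compound doses for 72 h at 37 °C. After lysis and histone extraction, H3K27me3 was detected by AlphaLISA with anti-K27me3 acceptor beads, biotinylated anti-H3 (C-ter) antibody (3 nM final) and streptavidin donor beads (20 μg/mL final). Signals were normalized to DMSO and curve-fitted for EC50.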

[1] = EZH2 nuc BSA Brij 1.5 (IC50), 2 nM EZH2, 0.2 μM biotinylated oligonucleosomes, 0.2 μM 3H SAM, 3.6 μM H3K27me3 peptide
[2] = EZH2 pep BSA Brij 4.0 LowE (IC50)

Chain of EZH2 (Q15910 whole entry): as the sequence (Q15910 whole entry) above
Chain of EZH2 (O75530 whole entry partner): as the sequence (O75530 whole entry partner) above
Chain of EZH2 (Q15022 whole entry partner): as the sequence (Q15022 whole entry partner) above

Row | Structure (SMILES) | IC50 (EZH2; [1]) [µM] | IC50 (PRC2 containing wt EZH2; [2]) [µM] | EC50 (H3K27me3 mark; Homo sapiens, HeLa, 72 h) [µM] | IC50 (EZH2; read-out: EZH2 nuc BSA Brij 1.5 (IC50); 2 nM EZH2, 0.2 μM biotinylated oligonucleosomes, 0.2 μM 3H SAM, 3.6 μM H3K27me3 peptide) [µM] | EC50 (H3K27me3 mark; 72 hrs) [µM] | IC50 (EZH2; 2 nM EZH2, 0.2 μM biotinylated oligonucleosomes, 0.2 μM 3H SAM, 3.6 μM H3K27me3 peptide; read-out: EZH2 nuc BSA Brij 1.5 (IC50)) [µM] | IC50 (PRC2 containing wt EZH2; read-out: EZH2 pep BSA Brij 4.0 LowE (IC50)) [µM]
1 | COc1cc(C)[nH]c(=O)c1CNC(=O)c1c(C)n(C(C)C2CCN(CC(F)F)C(C)C2)c2ccccc12 (single isomer, unassigned) [Compound 40, 1-(1-(1-(2,2-difluoroethyl)-2-methylpiperidin-4-yl)ethyl)-N-((4-methoxy-6-methyl-2-oxo-1,2-dihydropyridin-3-yl)methyl)-2-methyl-1H-indole-3-carboxamide] | < 0.1 | < 0.1 | < 0.4 |  |  |  | 
2 | COc1cc(C)[nH]c(=O)c1CNC(=O)c1c(C)n(C(C)C2CCN(CC(F)(F)F)C(C)C2)c2ccccc12 (single isomer, unassigned) [Compound 43, N-((4-methoxy-6-methyl-2-oxo-1,2-dihydropyridin-3-yl)methyl)-2-methyl-1-(1-(2-methyl-1-(2,2,2-trifluoroethyl)piperidin-4-yl)ethyl)-1H-indole-3-carboxamide] |  | < 0.1 |  | < 0.1 | < 0.4 |  | 
3 | COc1cc(C)[nH]c(=O)c1CNC(=O)c1c(C)n(C(C)C2CCN(C3COC3)CC2C(F)(F)F)c2ccccc12 (stereo not drawn) [Compound 8, N-((4-methoxy-6-methyl-2-oxo-1,2-dihydropyridin-3-yl)methyl)-2-methyl-1-(1-(1-(oxetan-3-yl)-3-(trifluoromethyl)piperidin-4-yl)ethyl)-1H-indole-3-carboxamide] | < 0.1 | < 0.1 | > 2 |  |  |  | 
4 | COc1cc(C)[nH]c(=O)c1CNC(=O)c1c(C)n(C(C)C2CCN(C)C(c3ccc(F)cc3)C2)c2ccccc12 (stereo not drawn) [Compound 33, 1-(1-(2-(4-fluorophenyl)-1-methylpiperidin-4-yl)ethyl)-N-((4-methoxy-6-methyl-2-oxo-1,2-dihydropyridin-3-yl)methyl)-2-methyl-1H-indole-3-carboxamide] |  |  | 0.4 to 2 |  |  | < 0.1 | < 0.1
